Source: patent US20220089592A1, “IMIDAZO[1,2-A]PYRIDINYL DERIVATIVES AS IRAK4 INHIBITORS” (priority 2019, published 2022)

biological target: T1, IRAK4 (Homo sapiens, UniProt Q9NWZ3); test: 2-hour 1 mM ATP IRAK4 Biochemical assay (as above, but with 100 pM IRAK4 and 1 mM ATP); conditions: IRAK4 MSD BIOCHEMICAL (1 mM ATP) IC50 (μM), 100 pM IRAK4, 2 hours
T1 sequence (Q9NWZ3 1-460): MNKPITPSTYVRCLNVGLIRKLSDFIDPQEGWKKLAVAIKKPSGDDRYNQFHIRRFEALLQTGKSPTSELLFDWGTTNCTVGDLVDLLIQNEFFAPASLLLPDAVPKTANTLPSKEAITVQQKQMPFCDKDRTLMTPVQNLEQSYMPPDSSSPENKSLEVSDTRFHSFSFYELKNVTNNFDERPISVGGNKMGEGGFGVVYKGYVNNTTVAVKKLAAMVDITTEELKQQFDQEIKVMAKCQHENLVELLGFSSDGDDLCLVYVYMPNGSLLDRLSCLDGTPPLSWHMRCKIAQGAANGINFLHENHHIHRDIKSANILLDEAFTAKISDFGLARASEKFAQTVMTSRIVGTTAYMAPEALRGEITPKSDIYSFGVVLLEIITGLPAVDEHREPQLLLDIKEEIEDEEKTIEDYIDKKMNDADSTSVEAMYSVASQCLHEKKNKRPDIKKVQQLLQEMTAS
Outline: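 Run with 100 pM IRAK4 and 1 mM ATP for 2 hours, quenched with EDTA pH 8. Phosphorylated biotinylated peptide captured on streptavidin MSD plates and detected with anti-phosphothreonine antibody plus Sulfo-Tag secondary by electrochemiluminescence.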

Row | IC50 | SMILES
1 | 0.012 µM | Cc1cccc(C(=O)Nc2cn3cc(C45COC(C)(C4)C5)nc3c(OC(C)C)n2)c1F [Example 478, 2-fluoro-N-(8-isopropoxy-2-(1-methyl-2-oxabicyclo[2.1.1]hexan-4-yl)imidazo[1,2-a]pyrazin-6-yl)-3-methylbenzamide 2,2,2-trifluoroacetate]
2 | 0.006 µM | COc1nc(NC(=O)c2cccc3ccnn23)cn2cc(C34CCC(C)(C3)OC4)nc12 (stereo not drawn) [Example 470, N-(8-methoxy-2-(1-methyl-2-oxabicyclo[2.2.1]heptan-4-yl)imidazo[1,2-a]pyrazin-6-yl)pyrazolo[1,5-a]pyridine-7-carboxamide 2,2,2-trifluoroacetate]
3 | 0.047 µM | CCOc1nc(C(=O)Nc2cn3cc(C45COC(C)(C4)C5)nc3c(OC)n2)co1 [Example 440, 2-ethoxy-N-(8-methoxy-2-(1-methyl-2-oxabicyclo[2.1.1]hexan-4-yl)imidazo[1,2-a]pyrazin-6-yl)oxazole-4-carboxamide]
4 | 0.002 µM | COc1nc(NC(=O)c2cccc(C(F)F)n2)cn2cc(C3CCOC(C)(C)C3)nc12 (stereo not drawn) [Example 560, 6-(difluoromethyl)-N-(2-(2,2-dimethyltetrahydro-2H-pyran-4-yl)-8-methoxyimidazo[1,2-a]pyrazin-6-yl)picolinamide 2,2,2-trifluoroacetate]
5 | 0.732 µM | COc1c(F)cccc1C(=O)Nc1cc(C)c2nc(C34COC(C)(C3)C4)cn2c1 [Example 407, 3-fluoro-2-methoxy-N-(8-methyl-2-(1-methyl-2-oxabicyclo[2.1.1]hexan-4-yl)imidazo[1,2-a]pyridin-6-yl)benzamide]
6 | 0.001 µM | O=C(Nc1cn2cc(C3CCOCC3)nc2cc1OCC1(C(F)F)CCC1)c1cccc(C(F)F)n1 [Example 198, 6-(difluoromethyl)-N-(7-((1-(difluoromethyl)cyclobutyl)methoxy)-2-(tetrahydro-2H-pyran-4-yl)imidazo[1,2-a]pyridin-6-yl)picolinamide]
7 | 0.001 µM | CC(C)Oc1nc2nc(C34COC(C)(C3)C4)cn2cc1NC(=O)c1cccc(C2CCOC2)n1 (stereo not drawn) [Example 493, N-(7-isopropoxy-2-(1-methyl-2-oxabicyclo[2.1.1]hexan-4-yl)imidazo[1,2-a]pyrimidin-6-yl)-6-(tetrahydrofuran-3-yl)picolinamide]
8 | 0.003 µM | CCOc1c(NC(=O)c2cccc(C(F)F)n2)cn2cc(C3CCOCC3)nc2c1Cl [Example 272, N-(8-chloro-7-ethoxy-2-(tetrahydro-2H-pyran-4-yl)imidazo[1,2-a]pyridin-6-yl)-6-(difluoromethyl)picolinamide]
9 | 0.008 µM | Cc1cccc(C(=O)Nc2cn3cc(C45COC(C)(C4)C5)nc3cc2C(F)F)n1 [Example 392, N-(7-(difluoromethyl)-2-(1-methyl-2-oxabicyclo[2.1.1]hexan-4-yl)imidazo[1,2-a]pyridin-6-yl)-6-methylpicolinamide 2,2,2-trifluoroacetate]
10 | 0.004 µM | CC(C)Oc1cc2nc(C3CCOCC3)cn2cc1NC(=O)c1ccn(C)n1 [Example 384, N-(7-isopropoxy-2-(tetrahydro-2H-pyran-4-yl)imidazo[1,2-a]pyridin-6-yl)-1-methyl-1H-pyrazole-3-carboxamide]
11 | 0.052 µM | O=C(Nc1cn2cc(C3CCOCC3)nc2cc1C(F)(F)F)c1cccc(C(F)F)n1 [Example 312, 6-(difluoromethyl)-N-(2-(tetrahydro-2H-pyran-4-yl)-7-(trifluoromethyl)imidazo[1,2-a]pyridin-6-yl)picolinamide]
12 | 0.534 µM | Cc1cc(NC(=O)c2ccn(C)n2)cn2cc(C34COC(C)(C3)C4)nc12 [Example 409, 1-methyl-N-(8-methyl-2-(1-methyl-2-oxabicyclo[2.1.1]hexan-4-yl)imidazo[1,2-a]pyridin-6-yl)-1H-pyrazole-3-carboxamide 2,2,2-trifluoroacetate]
13 | 0.002 µM | CC(C)Oc1cc2nc(C3CCOCC3)cn2cc1NC(=O)c1cccc2c1OCC2 [Example 379, N-(7-isopropoxy-2-(tetrahydro-2H-pyran-4-yl)imidazo[1,2-a]pyridin-6-yl)-2,3-dihydrobenzofuran-7-carboxamide]
14 | 0.003 µM | CCOc1cc2nc(C(C)C#N)cn2cc1NC(=O)c1cccc(C(F)F)n1 (stereo not drawn) [Example 316, N-(2-(1-cyanoethyl)-7-ethoxyimidazo[1,2-a]pyridin-6-yl)-6-(difluoromethyl)picolinamide]
15 | 0.044 µM | CC(C)Oc1cc2nc(C3CCOCC3)cn2cc1NC(=O)c1cc(C(F)F)cs1 [Example 232, 4-(difluoromethyl)-N-(7-isopropoxy-2-(tetrahydro-2H-pyran-4-yl)imidazo[1,2-a]pyridin-6-yl)thiophene-2-carboxamide]
16 | 0.046 µM | COc1nc(NC(=O)c2cccc(C(F)F)n2)cn2cc(CCOC(F)(F)F)nc12 [Example 563, 6-(difluoromethyl)-N-(8-methoxy-2-(2-(trifluoromethoxy)ethyl)imidazo[1,2-a]pyrazin-6-yl)picolinamide 2,2,2-trifluoroacetate]
17 | 0.023 µM | COc1nc(NC(=O)c2cccc(C(F)F)n2)cn2cc(C3COCCO3)nc12 (stereo not drawn) [Example 278, N-(2-(1,4-dioxan-2-yl)-8-methoxyimidazo[1,2-a]pyrazin-6-yl)-6-(difluoromethyl)picolinamide]
18 | 0.002 µM | CC(C)Oc1cc2nc(C34CC(F)(C3)C4)cn2cc1NC(=O)c1cccc(C(F)(F)F)n1 [Example 539, N-(2-(3-fluorobicyclo[1.1.1]pentan-1-yl)-7-isopropoxyimidazo[1,2-a]pyridin-6-yl)-6-(trifluoromethyl)picolinamide 2,2,2-trifluoroacetate]
19 | 0.007 µM | COCCCc1cn2cc(NC(=O)c3cccc(C(F)F)n3)cc(OC)c2n1 [Example 282, 6-(difluoromethyl)-N-(8-methoxy-2-(3-methoxypropyl)imidazo[1,2-a]pyridin-6-yl)picolinamide]
20 | 0.001 µM | CC(C)Oc1cc2nc(C34CC(F)(C3)C4)cn2cc1NC(=O)c1cccc(C(F)F)n1 [Example 258, 6-(difluoromethyl)-N-(2-(3-fluorobicyclo[1.1.1]pentan-1-yl)-7-isopropoxyimidazo[1,2-a]pyridin-6-yl)picolinamide]
21 | 0.002 µM | COc1cccn2ncc(C(=O)Nc3cn4cc(C56COC(C)(C5)C6)nc4c(OC(C)C)n3)c12 [Example 338, N-(8-isopropoxy-2-(1-methyl-2-oxabicyclo[2.1.1]hexan-4-yl)imidazo[1,2-a]pyrazin-6-yl)-4-methoxypyrazolo[1,5-a]pyridine-3-carboxamide]
22 | 0.001 µM | Cc1nc(C(=O)Nc2cn3cc(C45COC(C)(C4)C5)nc3cc2OC(C)C)co1 [Example 529, N-(7-isopropoxy-2-(1-methyl-2-oxabicyclo[2.1.1]hexan-4-yl)imidazo[1,2-a]pyridin-6-yl)-2-methyloxazole-4-carboxamide]
23 | 0.008 µM | CCOc1cc(NC(=O)c2cccc(C(F)(F)F)n2)cn2cc(C3CCCOC3)nc12 (single isomer, unassigned) [Example 288, N-(8-ethoxy-2-(tetrahydro-2H-pyran-3-yl)imidazo[1,2-a]pyridin-6-yl)-6-(trifluoromethyl)picolinamide]
24 | 0.004 µM | CC1(COc2cc3nc(C4CCOCC4)cn3cc2NC(=O)c2cccc(C(F)F)n2)CCOC1 (stereo not drawn) [Example 197, 6-(difluoromethyl)-N-(7-((3-methyltetrahydrofuran-3-yl)methoxy)-2-(tetrahydro-2H-pyran-4-yl)imidazo[1,2-a]pyridin-6-yl)picolinamide]
25 | 0.011 µM | COc1nc(NC(=O)c2cccc(C(F)F)n2)cn2cc(C34CC(OC)(C3)C4)nc12 [Example 553, 6-(difluoromethyl)-N-(8-methoxy-2-(3-methoxybicyclo[1.1.1]pentan-1-yl)imidazo[1,2-a]pyrazin-6-yl)picolinamide 2,2,2-trifluoroacetate]
26 | 0.015 µM | O=C(Nc1cc(OC(F)F)c2nc(C3CCOCC3)cn2c1)c1cccc(C(F)F)n1 [Example 307, N-(8-(difluoromethoxy)-2-(tetrahydro-2H-pyran-4-yl)imidazo[1,2-a]pyridin-6-yl)-6-(difluoromethyl)picolinamide]
27 | 0.001 µM | CC(C)Oc1c(NC(=O)c2ccn(C(C)C)n2)cn2cc(C34COC(C)(C3)C4)nc2c1F [Example 546, N-(8-fluoro-7-isopropoxy-2-(1-methyl-2-oxabicyclo[2.1.1]hexan-4-yl)imidazo[1,2-a]pyridin-6-yl)-1-isopropyl-1H-pyrazole-3-carboxamide 2,2,2-trifluoroacetate]

Row | SMILES | IC50
28 | CCC(C)Oc1c(NC(=O)c2cccnc2OC)cn2cc(C34COC(C)(C3)C4)nc2c1F (single isomer, unassigned) [Example 327, N-(7-(sec-butoxy)-8-fluoro-2-(1-methyl-2-oxabicyclo[2.1.1]hexan-4-yl)imidazo[1,2-a]pyridin-6-yl)-2-methoxynicotinamide] | 0.02 µM
29 | CCO[C@H]1C[C@H](Oc2cc3nc(C4CCOCC4)cn3cc2NC(=O)c2cccc(C(F)F)n2)C1 [Example 190, 6-(difluoromethyl)-N-(7-((1R*,3R*)-3-ethoxycyclobutoxy)-2-(tetrahydro-2H-pyran-4-yl)imidazo[1,2-a]pyridin-6-yl)picolinamide] | 0.001 µM
30 | CC12CC(c3cn4cc(NC(=O)c5coc(C6CC6)n5)nc(OC5CCC5)c4n3)(CO1)C2 [Example 340, N-(8-cyclobutoxy-2-(1-methyl-2-oxabicyclo[2.1.1]hexan-4-yl)imidazo[1,2-a]pyrazin-6-yl)-2-cyclopropyloxazole-4-carboxamide] | 0.006 µM
